These results are taken from US20110118269A1, “FUSED PYRAZINE COMPOUNDS AS THEIR SALTS, USEFUL FOR THE TREATMENT OF DEGENERATIVE AND INFLAMMATORY DISEASES” (priority 2009, published 2011).

What is called IC50 is the concentration that inhibits the measured activity by half.

This experiment relates to MMP13 expression in SW1353 cells. The experiment can be described thus: IL-1/OSM driven MMP13 expression in SW1353 cells (MMP13 ELISA). The class given is cell-based. The note with it: Homo sapiens, IL-1β and OSM, 48 hr. The procedure: A 384 well format ELISA for measurement of MMP13 was developed. Various primary antibodies are tested, as well as various ELISA protocols. The following protocol is developed and validated to measure MMP13 levels in supernatant of cell cultures in 384 well plates.
Black maxisorb 384 well plates (Nunc 460518) are coated with 35 μL of a buffered solution containing 1.5 μg/mL anti-MMP13 antibody MAB511 (R&D systems). The antibody is diluted in carbonate-bicarbonate coating buffer (1.59 g Na2CO3 (Sigma S-7795) and 2.93 g NaHCO3 (Sigma S-5761) in 1 L MilliQ water, adjusted to pH 9.6). […] Substrate solution is prepared as follows: OmniMMP Fluorescent substrate (Biomol P-126) stock solution (2 mM in DMSO, stored at −20° C.) is diluted in 1× OmniMMP buffer (10× OmniMMP buffer: 500 mM Hepes (Sigma H4034), 100 mM CaCl2 (Sigma C5080), 0.5% Brij35 (Sigma 430 AG-6; adjusted to pH 7.0) to a final concentration of 0.01 mM. After an overnight incubation at 37° C., the active MMP13 in the sample has cleaved the substrate and released fluorescence. Readout is performed on the EnVision (Perkin Elmer) using 320 nm excitation/405 nm emission filters. […]
For orientation: An ELISA detects its analyte on a solid surface through an enzyme-linked reagent.

Compound `CC(C)N1C[C@@H]2C[C@H]1CN2c1ccc(Nc2ncc(-c3coc(C(N)=O)c3)n3ncnc23)cc1` [Compound 1, 4-{8-[4-((1S,4S)-5-Isopropyl-2,5-diaza-bicyclo[2.2.1]hept-2-yl)-phenylamino]-[1,2,4]triazolo[1,5-a]pyrazin-5-yl}-furan-2-carboxamide] gave an IC50 of 50 to 500 nM.
